Measurements: the supplement of paper PMC10627819

How the values were obtained:
B. subtilis 168 [1] = assay: fitness (endpoint OD595 vs no drug) (fraction); higher = more growth
Method in brief: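 Fitness expresses the optical density reached at the stationary-phase transition as a fraction of the robust mean of no-drug control wells. It is capped at 1. Measurements were OD595 every 30 min for 14 h at 37 °C after inoculation of 384-well plates at OD595 0.01 (30 µl, or 55 µl for S. pneumoniae), minus the first reading.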

B. subtilis 168 [2] = assay: Bliss interaction score (quartile over a dose matrix) (fitness difference); higher = more antagonism (negative = synergy)
Method in brief: (§1)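 Quartiles summarise the Bliss score over technical, biological and donor/recipient replicates, where the score is observed minus expected fitness under a product model. Expected fitness uses single-drug values inferred from combination data. Fitness is OD595 at entry into stationary phase over the plate's robust no-drug mean, capped at 1.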

S. aureus DSM 20231 = assay: as above
Method in brief: as §1

S. aureus Newman = assay: as above
Method in brief: as §1

S. pneumoniae D39V = assay: as above
Method in brief: as §1
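For Bliss interaction score (quartile over a dose matrix) in this document: first quartile when negative (synergy) and third quartile when positive (antagonism).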

CO/N=C(\C(=O)N[C@@H]1C(=O)N2C(C(=O)O)=C(COC(N)=O)CS[C@H]12)c1ccco1 [Cefuroxime] + COc1cc(Cc2cnc(N)nc2N)cc(OC)c1OC [Trimethoprim]
fitness, B. subtilis 168 [1], one replicate
Details	partner 0.1 µg/mL	partner 0.125 µg/mL	partner 0.2 µg/mL	partner 0.25 µg/mL	partner 0.4 µg/mL	partner 1 µg/mL	partner 2 µg/mL
first compound 0.04875 µg/mL	–	0.392	–	0.382	–	0.37	0.375
first compound 0.0975 µg/mL	–	0.443	–	0.46	–	0.315	0.247
first compound 0.195 µg/mL	0.325	–	0.259	–	0.115	0.279	0.147
first compound 0.39 µg/mL	0.162	0.227	0.262	–	0.207	–	–
first compound 0.78 µg/mL	0.237	0.155	0.221	–	0.17	–	–

fitness, B. subtilis 168 [1]
Details	first compound 0.04875 µg/mL	first compound 0.0975 µg/mL	first compound 0.195 µg/mL	first compound 0.39 µg/mL	first compound 0.78 µg/mL	first compound 1.562 µg/mL	first compound 3.125 µg/mL	first compound 6.25 µg/mL
partner 0.125 µg/mL	–	–	0.289	–	–	–	–	–
partner 0.25 µg/mL	–	–	0.315	0.187	0.178	–	–	–
partner 0.5 µg/mL	0.397	0.407	0.29	0.19	0.168	0.286	0.26	0.255

Details	Bliss interaction score
B. subtilis 168 [2]	0.098
S. aureus DSM 20231	-0.188
S. aureus Newman	-0.438
S. pneumoniae D39V	-0.0241

CO/N=C(\C(=O)N[C@@H]1C(=O)N2C(C(=O)O)=C(COC(N)=O)CS[C@H]12)c1ccco1 [Cefuroxime] + C[C@H]1c2cccc(O)c2C(=O)C2=C(O)[C@]3(O)C(=O)C(C(N)=O)=C(O)[C@@H](N(C)C)[C@@H]3[C@@H](O)[C@@H]21 [Doxycycline]
fitness, B. subtilis 168 [1]
Details	first compound 0.04875 µg/mL	first compound 0.0975 µg/mL	first compound 0.195 µg/mL
partner 0.02 µg/mL	0.663	0.603	0.514
partner 0.04 µg/mL	0.6	0.525	0.358
partner 0.08 µg/mL	0.174	0.14	0.12

fitness, B. subtilis 168 [1], one replicate
Details	first compound 0.39 µg/mL	first compound 0.78 µg/mL	first compound 1.562 µg/mL	first compound 3.125 µg/mL	first compound 6.25 µg/mL
partner 0.02 µg/mL	0.488	0.451	0.441	0.424	0.393
partner 0.04 µg/mL	0.313	0.298	0.239	0.148	0.0995
partner 0.08 µg/mL	0.236	0.225	0.0559	0.0405	0.0345

Details	Bliss interaction score
B. subtilis 168 [2]	0.105
S. aureus DSM 20231	-0.257
S. aureus Newman	-0.0377
S. pneumoniae D39V	0.0445
